The subject of data set [1] is Hela cells. Description: Annexin V/PI apoptosis assay, Hela. Particulars: IC50 concentration, 24 h. Format: cell-based. The method, then:
An apoptotic assay using Annexin V/PI analysis for compounds 9a and 14g is evaluated. Compound 9a induced a significant level of early and late apoptosis (total = 42.19) in the Hela cell line when compared with the control cells (Table 3, Figure 5 and Figure 6).

Data set [2] has as its system Hela cells. In words: Cell cycle analysis (PI flow cytometry), Hela. Format: cell-based. How it is done: Cell cycle arrest of cervical cancer cells Hela, breast cancer cells MCF7, and colon cancer cells HCT-116 were assessed for compounds 9a and 14g at their IC50.
Data set [3] concerns Hela cancer cell line. In words: MTT cytotoxicity assay, cervical cancer Hela. It counts as cell-based. Particulars: Homo sapiens, mean ± SD of three experiments. How it is done: (§1) The cytotoxicity of compounds 9a–h and 14a–h against three cell lines, namely, cervical cancer Hela, breast cancer MCF7, and colon HCT-116, compared with doxorubicin as a reference compound was performed using MTT assay. The cytotoxic concentration (IC50 in µM) is illustrated in Table 1.
(§2) Standard MTT colorimetric assay was applied to test the IC50 of compounds 9a–h and 14a–h against three cell lines, namely, cervical cancer Hela, breast cancer MCF7, and colon HCT-116, compared with doxorubicin as a reference compound with the typical reported methodology of MTT colorimetric assay.

Data set [4] can be described thus: MTT cytotoxicity on normal cell line WI-38. Format: cell-based. Conditions: human, WI-38 normal cells, MTT assay, mean ± SD of three experiments, read-out: In Vitro Cytotoxicity on WI-38 (IC50).
Data set [5] deals with T1, CDK2 (Homo sapiens, UniProt P24941).
T1 construct: purchased BPS Bioscience
Description: In vitro CDK2 enzyme inhibition assay (BPS Bioscience kit, chemiluminescence). Format: biochemical. The method, then:
(§3) The CDK in vitro inhibitory activity of 9a–h and 14a–h toward CDK2 and CDK9 was performed using CDK Assay Kit (BPS Bioscience, USA) at different dilutions of 30, 10, 3, 1, 0.3, 0.1, 0.03, and 0.01 µM, measuring the chemiluminescence using BioTek™ Synergy2 Microplate Reader (BioTek, Santa Clara, CA, USA).

Data set [6] deals with MCF7 cancer cell line. In words: MTT cytotoxicity assay, breast cancer MCF7. It counts as cell-based. Particulars: Homo sapiens, mean ± SD of three experiments. How it is done: as §1, §2
Data set [7] has as its target T2, CDK9 (Homo sapiens, UniProt P50750).
T2 construct: purchased BPS Bioscience
In words: In vitro CDK9 enzyme inhibition assay (BPS Bioscience kit, chemiluminescence). It counts as biochemical. The method, then: as §3

In data set [8] the test system is HCT-116 cancer cell line. Description: MTT cytotoxicity assay, colon HCT-116. Format: cell-based. Conditions: Homo sapiens, mean ± SD of three experiments, read-out: IC50 HCT116. How it is done:
as §1, §2

“Also recorded” adds a separate entry of the source.

T2 sequence (P50750 whole entry): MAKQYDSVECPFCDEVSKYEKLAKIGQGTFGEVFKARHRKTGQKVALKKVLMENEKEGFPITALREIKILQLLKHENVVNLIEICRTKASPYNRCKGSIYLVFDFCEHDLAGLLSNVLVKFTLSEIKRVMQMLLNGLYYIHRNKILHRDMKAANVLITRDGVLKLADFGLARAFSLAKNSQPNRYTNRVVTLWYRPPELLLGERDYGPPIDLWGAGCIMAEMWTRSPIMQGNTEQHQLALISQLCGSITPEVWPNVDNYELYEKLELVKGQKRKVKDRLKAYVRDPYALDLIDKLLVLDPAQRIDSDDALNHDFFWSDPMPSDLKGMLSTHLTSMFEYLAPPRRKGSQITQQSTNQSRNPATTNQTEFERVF
T2 sequence (O60563 whole entry partner): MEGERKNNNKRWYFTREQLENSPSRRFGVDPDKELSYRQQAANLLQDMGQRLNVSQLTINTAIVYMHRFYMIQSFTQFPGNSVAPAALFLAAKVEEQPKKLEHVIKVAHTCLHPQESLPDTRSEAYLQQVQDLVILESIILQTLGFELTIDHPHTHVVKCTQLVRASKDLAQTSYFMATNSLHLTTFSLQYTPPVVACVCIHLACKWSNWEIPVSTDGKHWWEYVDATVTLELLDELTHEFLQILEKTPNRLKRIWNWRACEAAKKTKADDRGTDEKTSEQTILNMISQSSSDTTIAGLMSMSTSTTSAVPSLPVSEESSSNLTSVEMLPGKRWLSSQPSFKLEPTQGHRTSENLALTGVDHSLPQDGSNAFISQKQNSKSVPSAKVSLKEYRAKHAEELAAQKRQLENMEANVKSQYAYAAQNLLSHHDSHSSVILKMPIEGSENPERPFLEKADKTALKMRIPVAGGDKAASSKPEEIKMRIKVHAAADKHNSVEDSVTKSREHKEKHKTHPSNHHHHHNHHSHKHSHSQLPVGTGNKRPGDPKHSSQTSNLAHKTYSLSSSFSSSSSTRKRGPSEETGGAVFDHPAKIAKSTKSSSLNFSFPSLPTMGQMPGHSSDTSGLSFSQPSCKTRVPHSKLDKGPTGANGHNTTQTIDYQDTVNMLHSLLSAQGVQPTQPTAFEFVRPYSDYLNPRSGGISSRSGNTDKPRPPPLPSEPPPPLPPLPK

In the case of `COc1ccc(-c2nn(-c3ccccc3)c3nccc(-c4ccccc4)c23)cc1` [Compound 9a, 3-(4-Methoxyphenyl)-1,4-diphenyl-1H-pyrazolo[3,4-b]pyridine], the melting point fell in the range of 161 to 163 °C. The “Apoptosis Late” value in data set [1] (control 0.12) is reported as 12.82%. For the same compound, the “Apoptosis Early” value in data set [1] (control 0.49) is on record as 23.21%. Besides, the Necrosis in data set [1] (control 1.72) is listed as 6.16%. Also, the “Apoptosis Total” value in [1] (total equals early + late + necrosis, control 2.33, % printed in Figure 6 only) turned out to be 42.19%. The “Cell cycle Comment” value in [2] (compound at its IC50) is “cell cycle arrest at the S phase; also recorded: cell growth arrest@ S”. In addition, in data set [2] (compound at its IC50, control 14.5), the “DNA Content %G2/M” value was found to be 11.36%. Also, the “DNA Content %S” value in data set [2] (compound at its IC50, control 24.11) is given as 29.54%. The “DNA Content %G0-G1” value in data set [2] (compound at its IC50, control 61.39) was determined as 59.1%. For the same compound, the “cell accumulation at S phase relative to control” value in data set [2] (control 24.11%) was determined as 1.23 fold. Also, the IC50 in data set [3] stood at 2.59 ± 0.16 µM. In [4], the IC50 came out at 26.4 ± 3.23 µM. Also, the IC50 in [5] is 1.63 ± 0.009 µM. For the same compound, in [6], the IC50 turned out to be 6.39 ± 0.46 µM. Further, the IC50 in [7] turned out to be 0.262 ± 0.013 µM. Moreover, the IC50 in [8] is 15.3 ± 1.46 µM.

The compound `COc1ccc(-c2nn(-c3ccccc3)c3nccc(-c4ccc(C)cc4)c23)cc1` [Compound 9b, 3-(4-Methoxyphenyl)-1-phenyl-4-(p-tolyl)-1H-pyrazolo[3,4-b]pyridine] displayed a melting point of 186 to 188 °C. In data set [3], this compound registered an IC50 of 14 ± 1.25 µM. This compound returned an IC50 in [6] of 22.4 ± 3.18 µM. For the same compound, the IC50 in data set [8] is 18 ± 1.16 µM.

Consider `COc1ccc(-c2ccnc3c2c(-c2ccc(OC)cc2)nn3-c2ccccc2)cc1` [Compound 9c, 3,4-Bis(4-methoxyphenyl)-1-phenyl-1H-pyrazolo[3,4-b]pyridine], for which the melting point lay in the range of 198 to 200 °C. This compound also yielded an IC50 in data set [3] of 26.6 ± 3.37 µM. In data set [6], this compound yielded an IC50 of 59 ± 5.52 µM. Moreover, the IC50 in data set [8] came to 43.2 ± 3.26 µM.

The compound `COc1ccc(-c2nn(-c3ccccc3)c3nccc(-c4ccc(F)cc4)c23)cc1` [Compound 9d, 4-(4-Fluorophenyl)-3-(4-methoxyphenyl)-1-phenyl-1H-pyrazolo[3,4-b]pyridine] gave a melting point of 171 to 173 °C. The same compound displayed an IC50 in data set [3] of 19.6 ± 1.68 µM. In data set [6], this compound showed an IC50 of 13 ± 1.33 µM. The IC50 in data set [8] was 17.5 ± 0.98 µM.

Take `COc1ccc(-c2nn(-c3ccccc3)c3nccc(-c4ccc(Cl)cc4)c23)cc1` [Compound 9e, 4-(4-Chlorophenyl)-3-(4-methoxyphenyl)-1-phenyl-1H-pyrazolo[3,4-b]pyridine]: the melting point lay within 210 to 212 °C. The compound also came in with a half-maximal inhibitory concentration (IC50) in data set [3] of 48.5 ± 4.2 µM. Further, half-maximal inhibition in data set [6] (IC50) was put at 20.3 ± 3.21 µM. Besides, in [8], the half-maximal inhibitory concentration (IC50) came out at 16.6 ± 1.34 µM.

Compound `COc1ccc(-c2nn(-c3ccccc3)c3nccc(-c4ccc(Br)cc4)c23)cc1` [Compound 9f, 4-(4-Bromophenyl)-3-(4-methoxyphenyl)-1-phenyl-1H-pyrazolo[3,4-b]pyridine] had a melting point of 217 to 219 °C. Further, the IC50 in [3] is 20.4 ± 1.74 µM. The same compound came in with an IC50 in data set [6] of 35.6 ± 4.64 µM. The concentration for half-maximal inhibition (IC50) in data set [8] is 16.8 ± 0.76 µM.

The compound `COc1ccc(-c2nn(-c3ccccc3)c3nccc(-c4ccc([N+](=O)[O-])cc4)c23)cc1` [Compound 9g, 3-(4-Methoxyphenyl)-4-(4-nitrophenyl)-1-phenyl-1H-pyrazolo[3,4-b]pyridine] had a melting point of more than 300 °C. Moreover, half-maximal inhibition in [3] (IC50) required 28.3 ± 4.23 µM. The IC50 in [6] stood at 26.3 ± 2.85 µM. Moreover, the IC50 in data set [8] was found to be 40 ± 3.19 µM.

In turn, `COc1ccc(-c2nn(-c3ccccc3)c3nccc(-c4ccc(OC)c(OC)c4)c23)cc1` [Compound 9h, 4-(3,4-Dimethoxyphenyl)-3-(4-methoxyphenyl)-1-phenyl-1H-pyrazolo[3,4-b]pyridine] registered a melting point of 165 to 167 °C. Besides, the midpoint of inhibition in [3], the IC50, lay at 7.92 ± 1.11 µM. In data set [6], this compound registered a half-maximal inhibitory concentration (IC50) of 9.7 ± 1 µM. In addition, the 50% inhibitory concentration (IC50) in [8] was determined as 9.69 ± 0.56 µM.

Regarding `COc1ccc(-c2nn(-c3ccccc3)c3nc(-c4ccccc4)c(C#N)c(-c4ccccc4)c23)cc1` [Compound 14a, 3-(4-Methoxyphenyl)-1,4,6-triphenyl-1H-pyrazolo[3,4-b]pyridine-5-carbonitrile], the melting point lay within 229 to 231 °C. This compound came in with an IC50 in [3] of 23.1 ± 1.63 µM. The 50% inhibitory concentration (IC50) in [6] was determined as 20.7 ± 1.73 µM. Moreover, the IC50 in data set [8] stood at 25.8 ± 2.58 µM.

For the compound `COc1ccc(-c2nn(-c3ccccc3)c3nc(-c4ccccc4)c(C#N)c(-c4ccc(C)cc4)c23)cc1` [Compound 14b, 3-(4-Methoxyphenyl)-1,6-diphenyl-4-(p-tolyl)-1H-pyrazolo[3,4-b]pyridine-5-carbonitrile], the melting point lay within 203 to 205 °C. In [3], this compound displayed an IC50 of 21 ± 2.18 µM. Moreover, half-maximal inhibition in data set [6] (IC50) was put at 21.4 ± 2.05 µM. For the same compound, the IC50 in [8] was determined as 36.3 ± 1.83 µM.

In the case of `COc1ccc(-c2nn(-c3ccccc3)c3nc(-c4ccccc4)c(C#N)c(-c4ccc(OC)cc4)c23)cc1` [Compound 14c, 3,4-Bis(4-methoxyphenyl)-1,6-diphenyl-1H-pyrazolo[3,4-b]pyridine-5-carbonitrile], the melting point was 207 to 209 °C. The same compound registered an IC50 in data set [3] of 41.3 ± 2.79 µM. For the same compound, it took 39.3 ± 3.74 µM to reach half-maximal inhibition in data set [6] (IC50). Also, in [8], the IC50 came out at 36.7 ± 2.02 µM.

Take `COc1ccc(-c2nn(-c3ccccc3)c3nc(-c4ccccc4)c(C#N)c(-c4ccc(Cl)cc4)c23)cc1` [Compound 14d, 4-(4-Chlorophenyl)-3-(4-methoxyphenyl)-1,6-diphenyl-1H-pyrazolo[3,4-b]pyridine-5-carbonitrile]: the melting point fell in the range of 258 to 260 °C. In addition, the midpoint of inhibition in data set [3], the IC50, lay at 21.1 ± 2.03 µM. This compound had an IC50 in data set [6] of 37.2 ± 2.48 µM. In addition, the IC50 in [8] was 31.1 ± 3.54 µM.

As to `COc1ccc(-c2nn(-c3ccccc3)c3nc(-c4ccccc4)c(C#N)c(-c4ccc(Br)cc4)c23)cc1` [Compound 14e, 4-(4-Bromophenyl)-3-(4-methoxyphenyl)-1,6-diphenyl-1H-pyrazolo[3,4-b]pyridine-5-carbonitrile], the melting point was 221 to 223 °C. The midpoint of inhibition in data set [3], the IC50, lay at 37.3 ± 3.32 µM. Moreover, in data set [6], half-maximal inhibition (IC50) required 34.4 ± 2.59 µM. For the same compound, in data set [8], the 50% inhibitory concentration (IC50) was 37.8 ± 2.63 µM.

Turning to `COc1ccc(-c2nn(-c3ccccc3)c3nc(-c4ccccc4)c(C#N)c(-c4ccc(N(C)C)cc4)c23)cc1` [Compound 14f, 4-(4-(Dimethylamino)phenyl)-3-(4-methoxyphenyl)-1,6-diphenyl-1H-pyrazolo[3,4-b]pyridine-5-carbonitrile], the melting point is 230 to 232 °C. Moreover, the IC50 in data set [3] was 46.1 ± 3.7 µM. Besides, the IC50 in data set [6] was determined as 19.6 ± 1.26 µM. In addition, in data set [8], the half-inhibitory concentration (IC50) was determined as 40 ± 4.32 µM.

For the compound `COc1ccc(-c2nn(-c3ccccc3)c3nc(-c4ccccc4)c(C#N)c(-c4ccc(OC)c(OC)c4)c23)cc1` [Compound 14h, 4-(3,4-Dimethoxyphenyl)-3-(4-methoxyphenyl)-1,6-diphenyl-1H-pyrazolo[3,4-b]pyridine-5-carbonitrile], the melting point was 212 to 214 °C. In data set [3], the IC50 is 31.7 ± 2.48 µM. The compound further came in with an IC50 in data set [6] of 38.1 ± 2.76 µM. Moreover, in [8], the IC50 was 3.69 ± 0.11 µM.

As to `COc1cccc2c1C(=O)c1c(O)c3c(c(O)c1C2=O)C[C@@](O)(C(=O)CO)C[C@@H]3O[C@H]1C[C@H](N)[C@H](O)[C@H](C)O1` [Doxorubicin, reference compound], the 50% inhibitory concentration (IC50) amounted to 2.35 ± 0.08 µM in data set [3], 15.6 ± 0.37 µM in data set [4], 4.57 ± 0.28 µM in data set [6] and 2.11 ± 0.2 µM in data set [8].

For the origin of these results see article PMC10490123, “Synthesis and In Vitro Anticancer Activity of Novel 4-Aryl-3-(4-methoxyphenyl)-1-phenyl-1H-pyrazolo[3,4-b]pyridines Arrest Cell Cycle and Induce Cell Apoptosis by Inhibiting CDK2 and/or CDK9” (Molecules, 2023).
